This is an account of results in patent publication US20230391826A1, “COMPOSITIONS AND METHODS FOR TREATING DISEASES” (Sanford Burnham Prebys Medical Discovery Institute, priority 2020, published 2023).

Each structure is given as a SMILES string. In brackets after ≈: the same amount, converted by molar mass. Where two headings read alike, the source gives them in different places. Where a SMILES comes first, the peptide text is derived from it. Bridges are numbered along the chain shown (N, C = ends). Roman numbers before positions name the chains, in order. [ ]: non-standard residue; d: D form. βAla = NCCC(=O)O

Broadly, the solubility is the concentration that dissolves in the medium under given conditions. The term Kd denotes the equilibrium constant for the complex coming apart. Read a low Kd as higher affinity. As usually defined, the EC50 is the concentration at which the effect is half-maximal.

Series [1] addresses T1, EphA2 extracellular domain fused to Fc (EphA2-Fc) (Homo sapiens, UniProt P29317).
T1 construct: immobilized EphA2 extracellular domain fused to the Fc portion of an antibody (EphA2-Fc)
Briefly: ELISA: inhibition of ephrinA5-AP binding to immobilized EphA2-Fc. The text has this: FIG. 1A-1C illustrates an example of Potency and selectivity of EphA2-targeting dimeric peptides. (FIG. 1A) ELISAs comparing the ability of the peptides to inhibit binding of ephrin-A5 fused to alkaline phosphatase (ephrinA5-AP) to the immobilized EphA2 extracellular domain fused to the Fc portion of an antibody (EphA2-Fc). The graphs show averages ±SD from triplicate measurements from a representative experiment. IC50 values calculated from the fitted curves in each experiment are shown. Averages of IC50 values obtained from multiple experiments are shown in panel FIG. 1B and Table 3. The 10 nM peptide concentration is outlined in red. (FIG. 1B) Plot of the average IC50 values (listed in Table 3) for different ligands. […] (FIG. 1C) EphrinA5-AP binding to EphA receptors and ephrinB2-AP binding to EphB receptors in the presence of dimeric peptides representing each of the three configurations. Values are normalized to ephrin binding without peptide. The graphs show averages and SDs from triplicate measurements (with each measurement shown as a dot).
For orientation: ELISA stands for enzyme-linked immunosorbent assay.

Series [2] is described as follows: Peptide solubility in PBS/H2O/DMSO. Type of series: physicochemical. On the procedure:
Peptide identity and purity are documented by mass spectrometry and high-performance liquid chromatography (HPLC). The peptide solubility values are determined. Concentrated peptide stocks are prepared in DMSO or H2O and stored frozen at −80° C.

The target in the next series is T2, EphA2 LBD (Homo sapiens, UniProt P29317).
T2 construct: made in house; host or cells: E. coli Origami 2(DE3)
Briefly: Isothermal titration calorimetry (ITC) with soluble EphA2 LBD. In kind it is binding. How it is done:
(FIG. 10A-10E) The EphA2 LBD was titrated at 200-250 μM into 10-12.5 μM of the indicated peptide.
For ITC, all peptides are dissolved in DMSO and both the EphA2 LBD and the peptides are diluted to obtain a final buffer containing 9.5 mM HEPES, pH 7.9, 95 mM NaCl, and 5% DMSO. The experiments are carried out at 296 K (23° C.) using an ITC200 calorimeter (Microcal). Two-microliter aliquots of a peptide solution are injected into the cell containing 205 μL EphA2 LBD. 200-400 μM peptides are titrated into 20-40 μM EphA2 LBD. Experimental data are analyzed using the Origin software package (Microcal). The integrated values for the reaction heats are normalized to the amount of injected peptide after blank subtraction.
For orientation: Isothermal titration calorimetry measures the heat released or taken up as one component is titrated into another.

Another series deals with EphA2 (Homo sapiens, UniProt P29317). Briefly: EphA2 autophosphorylation on tyrosine 588 in PC3 cells (immunoblot dose-response). In kind it is cell-based. Set-up: EphA2 is the prevalent endogenously expressed EphA receptor in these cells; endogenous in cells; host or cells: PC3 prostate cancer cells. The following applies: read-out: EC50 PY588. On the procedure:
(FIG. 2A) Dose-response curves for EphA2 autophosphorylation on tyrosine 588 (pY588; purple) and for downstream inhibition of AKT phosphorylation (magenta). PC3 cells were treated for 15 min with different concentrations of the indicated peptides. […] The graphs show quantifications from multiple blots (averages ±SE; the number of experiments used to generate each curve is shown in Table 3). […] (FIG. 2B) Examples of immunoblots of lysates from PC3 cells treated with the indicated concentrations of representative ligands. […] A white vertical line indicates removal of irrelevant lanes. […] The bars show averages ±SE, and the individual measurements are shown as black dots. […] Plots of Etop versus EC50 for pY588 in FIG. 2D and for pAKT inh in FIG. 2E. Averages ±SE are shown for the peptides and ephrinA1.
To examine the agonistic properties of the different dimeric peptide ligands, EphA2 autophosphorylation on tyrosine 588 (Y588) was measured, which is indicative of receptor activation and mediates binding of SH2 domain-containing proteins that link EphA2 to various downstream signaling pathways (FIG. 7). For these experiments, PC3 prostate cancer cells were stimulated with the dimeric peptides because EphA2 is the prevalent endogenously expressed EphA receptor in these cells, allowing comparisons with ephrins.
Background: Immunoblotting shows a protein as a band on a membrane.

[3] abbreviates: Table 3, inhibition of EphA2-ephrinA5 interaction, averages ± SD, read-out: ICsa (nM) by ELISA.
[4] abbreviates: DMSO, Table 4, third of PBS/H20/DMSO, read-out: Solubility in DMSO.
Where [5] appears, read: H2O, Table 4, second of PBS/H20/DMSO, read-out: Solubility in H20.
[6] abbreviates: PBS, Table 4, first of PBS/H20/DMSO, read-out: Solubility in PBS.
[7] abbreviates: DMSO, third of PBS/H2O/DMSO, read-out: Solubility in DMSO.
Where [8] appears, read: H2O, second of PBS/H2O/DMSO, read-out: Solubility in H2O.
The mark [9] stands for this setting: PBS, first of PBS/H2O/DMSO, read-out: Solubility in PBS.

T1 sequence (P29317 24-537 limits assumed): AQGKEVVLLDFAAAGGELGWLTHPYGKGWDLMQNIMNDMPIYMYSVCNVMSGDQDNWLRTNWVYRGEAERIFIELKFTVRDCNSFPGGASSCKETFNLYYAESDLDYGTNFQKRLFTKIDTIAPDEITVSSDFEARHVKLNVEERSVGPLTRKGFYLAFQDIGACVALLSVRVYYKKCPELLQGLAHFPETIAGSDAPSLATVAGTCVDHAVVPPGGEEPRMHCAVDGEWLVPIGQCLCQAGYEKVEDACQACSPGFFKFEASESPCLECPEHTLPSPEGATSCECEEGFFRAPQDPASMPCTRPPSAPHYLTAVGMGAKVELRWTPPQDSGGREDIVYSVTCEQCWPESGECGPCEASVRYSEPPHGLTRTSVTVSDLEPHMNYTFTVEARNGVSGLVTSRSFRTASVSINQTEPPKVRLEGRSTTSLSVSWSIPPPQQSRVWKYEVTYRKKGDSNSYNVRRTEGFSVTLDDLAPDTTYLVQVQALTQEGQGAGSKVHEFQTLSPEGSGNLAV
T2 sequence (P29317 28-200): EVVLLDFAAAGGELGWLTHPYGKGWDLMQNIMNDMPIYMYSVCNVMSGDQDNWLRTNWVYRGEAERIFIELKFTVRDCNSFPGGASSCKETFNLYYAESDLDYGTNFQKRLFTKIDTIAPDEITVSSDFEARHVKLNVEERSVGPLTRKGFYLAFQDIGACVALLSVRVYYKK
EphA2, sequence (P29317 24-976): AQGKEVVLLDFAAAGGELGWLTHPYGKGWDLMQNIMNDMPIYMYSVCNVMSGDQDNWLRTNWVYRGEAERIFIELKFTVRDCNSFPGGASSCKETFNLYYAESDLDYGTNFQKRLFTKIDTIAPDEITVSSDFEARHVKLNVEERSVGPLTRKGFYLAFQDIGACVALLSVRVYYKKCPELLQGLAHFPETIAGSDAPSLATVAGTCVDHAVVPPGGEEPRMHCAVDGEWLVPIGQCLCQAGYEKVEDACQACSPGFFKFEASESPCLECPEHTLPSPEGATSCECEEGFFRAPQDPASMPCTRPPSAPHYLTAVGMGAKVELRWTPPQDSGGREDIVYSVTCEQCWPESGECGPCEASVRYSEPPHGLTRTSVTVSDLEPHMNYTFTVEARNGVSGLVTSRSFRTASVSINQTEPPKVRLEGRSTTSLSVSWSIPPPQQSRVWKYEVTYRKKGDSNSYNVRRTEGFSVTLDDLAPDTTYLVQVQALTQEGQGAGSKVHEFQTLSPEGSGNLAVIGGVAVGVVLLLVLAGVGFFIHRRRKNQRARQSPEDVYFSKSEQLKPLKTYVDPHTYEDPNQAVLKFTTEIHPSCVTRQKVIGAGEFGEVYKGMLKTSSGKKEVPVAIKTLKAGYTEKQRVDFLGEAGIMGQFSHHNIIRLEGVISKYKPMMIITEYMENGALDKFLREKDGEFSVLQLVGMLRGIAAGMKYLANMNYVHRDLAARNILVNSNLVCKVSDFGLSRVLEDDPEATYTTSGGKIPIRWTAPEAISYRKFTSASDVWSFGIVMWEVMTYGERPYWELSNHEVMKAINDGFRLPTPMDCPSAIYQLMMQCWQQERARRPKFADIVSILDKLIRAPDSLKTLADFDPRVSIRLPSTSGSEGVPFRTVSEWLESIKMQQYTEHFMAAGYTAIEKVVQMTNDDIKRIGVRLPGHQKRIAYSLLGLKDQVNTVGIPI

Take `CC(C)C[C@H](NC(=O)[C@H](Cc1c[nH]c2ccccc12)NC(=O)CCN)C(=O)N[C@@H](C)C(=O)N[C@@H](Cc1ccc(O)cc1)C(=O)N1CCC[C@H]1C(=O)N[C@@H](CC(=O)O)C(=O)N[C@@H](CO)C(=O)N[C@H](C(=O)N1CCC[C@H]1C(=O)N[C@@H](Cc1ccc(O)cc1)C(=O)N[C@@H](CCCNC(=N)N)C(=O)N1CCC[C@H]1C(=O)N[C@@H](CCCCN)C(=O)NCCCC[C@H](NC(=O)[C@H](CCCCN)NC(=O)[C@@H]1CCCN1C(=O)[C@H](CCCNC(=N)N)NC(=O)[C@H](Cc1ccc(O)cc1)NC(=O)[C@@H]1CCCN1C(=O)[C@@H](NC(=O)[C@H](CO)NC(=O)[C@H](CC(=O)O)NC(=O)[C@@H]1CCCN1C(=O)[C@H](Cc1ccc(O)cc1)NC(=O)[C@H](C)NC(=O)[C@H](CC(C)C)NC(=O)[C@H](Cc1c[nH]c2ccccc12)NC(=O)CCN)C(C)C)C(=O)O)C(C)C` [compound 3]: the IC50 in series [1] (setting [3]) came to 0.77 nM. Moreover, the solubility was 10000 µg/mL (≈ 2910 µM) in series [2] (setting [4]), 5000 µg/mL (≈ 1460 µM) in series [2] (setting [5]) and below 100 µg/mL in series [2] (setting [6]).

As for `CC(C)C[C@H](NC(=O)[C@H](Cc1c[nH]c2ccccc12)NC(=O)[C@H](C)NC(=O)CNC(=O)[C@@H](N)CSSC[C@H](N)C(=O)NCC(=O)N[C@@H](C)C(=O)N[C@@H](Cc1c[nH]c2ccccc12)C(=O)N[C@@H](CC(C)C)C(=O)N[C@@H](C)C(=O)N[C@@H](Cc1ccc(O)cc1)C(=O)N1CCC[C@H]1C(=O)N[C@@H](CC(=O)O)C(=O)N[C@@H](CO)C(=O)N[C@H](C(=O)N1CCC[C@H]1C(=O)N[C@@H](Cc1ccc(O)cc1)C(=O)N[C@@H](CCCNC(=N)N)C(=O)O)C(C)C)C(=O)N[C@@H](C)C(=O)N[C@@H](Cc1ccc(O)cc1)C(=O)N1CCC[C@H]1C(=O)N[C@@H](CC(=O)O)C(=O)N[C@@H](CO)C(=O)N[C@H](C(=O)N1CCC[C@H]1C(=O)N[C@@H](Cc1ccc(O)cc1)C(=O)N[C@@H](CCCNC(=N)N)C(=O)O)C(C)C` [compound 4] (I: H-CGAWLAYPDSVPYR-OH / II: H-CGAWLAYPDSVPYR-OH; disulfide I:1-II:1; C-terminus assumed), the IC50 in series [1] (inhibition of ephrin-A5 binding to EphA2, number of experiments in parentheses, read-out: Inc50 (nM) by ELISA) was 7.9 ± 1.9 nM. In addition, the Kd on EphA2 LBD is 104 ± 1 nM. Moreover, the solubility in series [2] (setting [4]) is 10000 µg/mL (≈ 3130 µM); in series [2] (setting [7]), 10000 µg/mL (≈ 3130 µM); in series [2] (setting [8]) it was below 100 µg/mL; in series [2] (setting [6]), below 100 µg/mL; in series [2] (setting [9]), below 100 µg/mL; in series [2] (water, Table 4, second of PBS/H20/DMSO, read-out: Solubility in H20), below 100 µg/mL.

As for `CC(C)C[C@H](NC(=O)[C@H](Cc1c[nH]c2ccccc12)NC(=O)[C@H](C)NC(=O)CNC(=O)[C@@H](N)Cc1cn(CCCC[C@H](N)C(=O)N[C@@H](C)C(=O)N[C@@H](Cc2c[nH]c3ccccc23)C(=O)N[C@@H](CC(C)C)C(=O)N[C@@H](C)C(=O)N[C@@H](Cc2ccc(O)cc2)C(=O)N2CCC[C@H]2C(=O)N[C@@H](CC(=O)O)C(=O)N[C@@H](CO)C(=O)N[C@H](C(=O)N2CCC[C@H]2C(=O)N[C@@H](Cc2ccc(O)cc2)C(=O)N[C@@H](CCCNC(=N)N)C(=O)N2CCC[C@H]2C(=O)N[C@@H](CCCCN)C(N)=O)C(C)C)nn1)C(=O)N[C@@H](C)C(=O)N[C@@H](Cc1ccc(O)cc1)C(=O)N1CCC[C@H]1C(=O)N[C@@H](CC(=O)O)C(=O)N[C@@H](CO)C(=O)N[C@H](C(=O)N1CCC[C@H]1C(=O)N[C@@H](Cc1ccc(O)cc1)C(=O)N[C@@H](CCCNC(=N)N)C(=O)N1CCC[C@H]1C(=O)N[C@@H](CCCCN)C(N)=O)C(C)C` [compound 7], the IC50 in series [1] (setting [3]) came to 0.54 nM. The solubility in series [2] (setting [7]) is 10000 µg/mL (≈ 2750 µM); in series [2] (setting [5]), 5000 µg/mL (≈ 1380 µM); in series [2] (setting [8]) it was 5000 µg/mL (≈ 1380 µM); in series [2] (setting [6]), 1000 µg/mL (≈ 275 µM); in series [2] (setting [9]) it was below 100 µg/mL. Moreover, the EC50 at EphA2 is 0.22 ± 0.04 nM.

Consider `CC(C)C[C@H](NC(=O)[C@H](Cc1c[nH]c2ccccc12)NC(=O)CCN)C(=O)N[C@@H](C)C(=O)N[C@@H](Cc1ccc(O)cc1)C(=O)N1CCC[C@H]1C(=O)N[C@@H](CC(=O)O)C(=O)N[C@@H](CO)C(=O)N[C@H](C(=O)N1CCC[C@H]1C(=O)N[C@@H](Cc1ccc(O)cc1)C(=O)N[C@@H](CCCNC(=N)N)C(=O)N1CCC[C@H]1C(=O)N[C@@H](CCCCN)C(=O)NCC(=O)NCC(=O)N[C@@H](C)C(=O)N[C@@H](Cc1c[nH]c2ccccc12)C(=O)N[C@@H](CC(C)C)C(=O)N[C@@H](C)C(=O)N[C@@H](Cc1ccc(O)cc1)C(=O)N1CCC[C@H]1C(=O)N[C@@H](CC(=O)O)C(=O)N[C@@H](CO)C(=O)N[C@H](C(=O)N1CCC[C@H]1C(=O)N[C@@H](Cc1ccc(O)cc1)C(=O)N[C@@H](CCCNC(=N)N)C(=O)N1CCC[C@H]1C(=O)N[C@@H](CCCCN)C(N)=O)C(C)C)C(C)C` [compound 8, linear dimer (head-to-tail)] (H-[βAla]WLAYPDSVPYRPKGGAWLAYPDSVPYRPK-NH2; N-terminus assumed), for which the “ICsa (nM) by ELISA” value in series [1] (Table 3, inhibition of EphA2-ephrinA5 interaction, averages ± SD) was “subnanomolar”. For the same molecule, the solubility in series [2] (setting [7]) amounted to 10000 µg/mL (≈ 2920 µM); in series [2] (setting [5]), 5000 µg/mL (≈ 1460 µM); in series [2] (setting [8]), 5000 µg/mL (≈ 1460 µM); in series [2] (setting [9]), 1000 µg/mL (≈ 292 µM).

Consider `O=C(O)CCCC[C@@H]1SC[C@@H]2NC(=O)N[C@@H]21` [free biotin, biotin, reference compound], for which the “binding to the EphA2 LBD by ITC” value on EphA2 LBD (high biotin concentration (1 mM)) is “did not detect binding”.
